The record followed here is patent publication US6174884A, “1,5-dihydro-pyrazolo[34-D]-pyrimidinone derivatives” (Bayer Aktiengesellschaft, priority 1997, dated 2001).

The target of one assay is PDE V. The experiment in a line: Phosphodiesterase inhibition in vitro, PDE V (cGMP-specific). It counts as biochemical. To be noted: 3H-cGMP substrate. From the text:
(§1) The c-GMP-stimulatable PDE II, the c-GMP-inhibitable PDE III and the cAMP-specific PDE IV were isolated either from porcine or bovine heart myocard. The Ca^2+ -calmodulin-stimulatable PDE I was isolated from porcine aorta, porcine brain or, preferably, bovine aorta. The c-GMP-specific PDE V was obtained from porcine small intestine, porcine aorta, human platelets and, preferably, bovine aorta. They were purified by anion exchange chromatography on MonoQ® Pharmacia following essentially the method of M. Hoey and Miles D. Houslay, Biochemical Pharmacology, Vol. 40, 193-202 (1990) and C. Lugman et al. Biochemical Pharmacology Vol. 35 1743-1751 (1986).
(§2) The enzyme activity is determined in a test batch of 100 μl in 20 mM Tris/HCl buffer pH 7.5 which comprises 5 mM MgCl2, 0.1 mg/ml bovine serum albumin and either 800 Bq ^3 HcAMP or ^3 HcGMP. The end concentration of the corresponding nucleotide is 10^-6 mol/l. The reaction is started by adding the enzyme, and the quantity of enzyme is such that approx. 50% of the substrate are converted during the incubation time of 30 minutes. To test the cGMP-stimulatable PDE II, ^3 HcAMP is used as substrate, 10^-6 mol/l unlabelled cGMP are added to the batch. To test the Ca-calmodulin-dependent PDE I, 1 μM CaCl2 and 0.1 μM calmodulin are also added to the reaction batch. The reaction is stopped by adding 100 μl of acetonitrile which contains 1 mM cAMP and 1 mM AMP. 100 μl of the reaction batch are separated by HPLC and the cleavage products are quantified on-line using a flow scintillation counter. The substance concentration at which the reaction rate is reduced by 50% is measured. Also used for testing were the "Phosphodiesterase [^3 H] cAMP-SPA enzyme assay" and the "Phosphodiesterase [^3 H]cGMP-SPA enzyme assay" by Amersham Life Science. The test was performed following the manufacturer's protocol. To determine the PDE2 activity, the [^3 H] cAMP SPA assay was used, 10^-6 M cGMP being added to the reaction batch for activating the enzyme. To measure PDE1, 10^-7 M calmodulin and 1 μM CaCl2 were added to the reaction batch. PDE5 was measured using the [^3 H] cGMP SPA assay.

For the next assay, the target named is PDE II. The experiment in a line: Phosphodiesterase inhibition in vitro, PDE II (cGMP-stimulatable). It counts as biochemical, porcine or bovine. To be noted: 3H-cAMP substrate, 10^-6 mol/l cGMP added.
Text: as §1, §2

In the next assay the target is PDE I. The assay is described as follows: Phosphodiesterase inhibition in vitro, PDE I (Ca-calmodulin-stimulatable). It counts as biochemical, porcine aorta, porcine brain or, preferably, bovine aorta. The following applies: Ca/calmodulin added, substrate 10^-6 mol/l.
Text: as §1, §2

Molecules are shown by their SMILES.

Broadly, the IC50 is the concentration that inhibits the measured activity by half. For the compound `Cc1nn(C(CCCc2ccccc2)C(C)O)c2nc(Cc3ccccc3)[nH]c(=O)c12` (single isomer, unassigned) [Example 32, 6-Benzyl-1-[1-(1-hydroxy-ethyl)-4-phenyl-butyl]-3-methyl-1,5-dihydro-pyrazolo[3,4-d]pyrimidin-4-one], the values for the 50% inhibitory concentration (IC50) against PDE V, against PDE II and against PDE I were 300 nM, 300 nM and 500 nM, respectively.

Regarding `Cc1nn(C(CCCc2ccccc2)C(C)O)c2nc(Cc3ccccc3)[nH]c(=O)c12` (single isomer, unassigned) [Example 33, 6-Benzyl-1-[1-(1-hydroxy-ethyl)-4-phenyl-butyl]-3-methyl-1,5-dihydro-pyrazolo[3,4-d]pyrimidin-4-one], the IC50 stood at 800 nM against PDE V, 500 nM on PDE II and 500 nM on PDE I.

Take `COc1ccc(Cc2nc3c(cnn3C(C)CCCc3ccccc3)c(=O)[nH]2)cc1OC` (stereo not drawn) [Example 9]: the IC50 against PDE V, against PDE II and against PDE I was 300 nM each time.

Turning to `CC(CCCc1ccccc1)n1ncc2c(=O)[nH]c(Cc3ccc(Cl)c(Cl)c3)nc21` (stereo not drawn) [Example 10], the half-inhibitory concentration (IC50) came to 50 nM at PDE V, 500 nM against PDE II and 300 nM on PDE I.

Turning to `CCc1nn(C(C)CCCc2ccccc2)c2nc(Cc3ccc(Br)cc3)[nH]c(=O)c12` (stereo not drawn) [Example 11, 6-(4-Bromo-benzyl)-1-(1-methyl-4-phenyl-butyl)-3-ethyl-1,5-dihydro-pyrazole[3,4-d]pyrimidin-4-one], the results for the half-maximal inhibitory concentration (IC50) at PDE V, against PDE II and at PDE I were 50 nM, 100 nM and more than 10000 nM, respectively.
